Here are results for eleven compounds from US6747009B2, “Peptidomimetic glutathione analogs” (Universiteit Leiden, priority 2002, dated 2004).

Numbered stars: 1 amine (or outer) side, 2 acyl side, 3 side chain; on linkers, the order of the positions; unused ones are H or OH. Square brackets hold non-standard residues; d marks the D form. Peptide text beside a SMILES is read from it. * marks the point of attachment. ξ: configuration not given here. γGlu = O=C(O)[C@H](CCC(=O)[*:2])N[*:1]; ξPhg = NC(C(=O)O)c1ccccc1; Bn = c1ccc(C*)cc1 Where only a bound is given, the exact number is not on record here.

For one data set, the target named is T1, human GSTP1-1 (Homo sapiens, UniProt P09211).
T1 construct: purchased PanVers Corporation (Madison, Wis., USA)
Nature of the data set: GST inhibition assay (CDNB conjugation), Ki and % inhibition. It counts as biochemical. The following applies: for inhibition at 50 µM: 1 mM GSH, 1 mM CDNB, 50 μM inhibitor, relative to non-inhibited rate. As to the method: (§1) Human recombinant GST isoenzymes A1-1, M1-1 and P1-1 were used for the GST inhibition assays. Experiments were performed according to Habig et al; (1974), J. Biol. Chem. 249, 7130-7139, modified for a 96-wells plate-reader assay. The purified human GST isoenzymes (10-20 ng/ml) were incubated with or without inhibitor (50 μM) in the presence of 8 different concentrations (50 μM-4 mM) GSH at 37° C. in 0.1 M potassium phosphate buffer pH 6.5/1 mM EDTA. The reaction was initiated by addition of CDNB in ethanol (final concentration 1 mM, 1% ethanol in assay mix), after which the formation of GS-DNB was spectrophotometrically monitored at 340 nm. Reaction rates were corrected for the non-enzymatic conjugate formation. Kt values (table 1) were determined using the Km, app method according to Kakkar et al. (1999), Drug Metab. Dispos. 27, 756-762; Kakkar et al. (2000), J. Pharmacol. Exp. Ther. 293, 861-869. Experiments were performed three times with quadruple measurements.

The target of another data set is T2, human GSTM1-1 (Homo sapiens, UniProt P09488).
T2 construct: purchased PanVers Corporation (Madison, Wis., USA)
T2 sequence (P09488 2-218 limits assumed): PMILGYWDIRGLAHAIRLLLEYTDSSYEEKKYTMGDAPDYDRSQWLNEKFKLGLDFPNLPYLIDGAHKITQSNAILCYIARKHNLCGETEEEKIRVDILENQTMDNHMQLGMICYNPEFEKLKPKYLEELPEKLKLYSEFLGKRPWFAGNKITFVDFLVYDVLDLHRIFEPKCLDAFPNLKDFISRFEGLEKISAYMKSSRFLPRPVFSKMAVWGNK
Nature of the data set: GST inhibition assay (CDNB conjugation), Ki determination. Format: biochemical. The following applies: human recombinant GSTM1-1; ± SD; 50 μM inhibitor, 50 μM-4 mM GSH, 1 mM CDNB, pH 6.5. As to the method:
as §1

The target in another data set is T3, human GSTA1-1 (Homo sapiens, UniProt P08263).
T3 construct: purchased PanVers Corporation (Madison, Wis., USA)
T3 sequence (P08263 1-222): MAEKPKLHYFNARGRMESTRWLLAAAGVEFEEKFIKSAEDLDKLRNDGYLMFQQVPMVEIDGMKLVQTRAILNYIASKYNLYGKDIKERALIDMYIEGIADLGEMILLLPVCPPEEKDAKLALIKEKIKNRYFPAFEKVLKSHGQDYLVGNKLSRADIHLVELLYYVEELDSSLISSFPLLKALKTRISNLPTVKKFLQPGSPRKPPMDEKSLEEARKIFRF
The description is as above. Format: biochemical. The following applies: human recombinant GSTA1-1; ± SD; 50 μM inhibitor, 50 μM-4 mM GSH, 1 mM CDNB, pH 6.5. As to the method:
as §1

Data set [1] relates to bovine kidney γ-glutamyl transpeptidase. Nature of the data set: Stability towards γ-glutamyl transpeptidase (RP-HPLC disappearance of parent). It counts as in vitro ADME. The following applies: pH 7.4. The protocol:
Peptide isosteres were incubated with 0.25 mg/ml bovine γ-glutamyltranspeptidase in 0.1M Tris-HCl buffer pH=7.4. At the appropriate time-point a sample (100 μL) was taken, heat inactivated and stored on ice until HPLC analysis. Disappearance of the indicated compounds was determined by RP-HPLC. Open markers indicate γGT sensitive compounds, closed markers are γGT stabilized.
The rate of degradation was determined by incubating 250 μM of GluPhg-Benzyl, RedPhg-Benzyl and UtPhg-Benzyl at 37° C. with 0.25 mg/ml bovine kidney γ-glutamyl transpeptidase in 0.1 M Tri-HCl buffer, pH 7.4, supplemented with 0.1 mM EDTA. At selected time-intervals, a 100 μL sample was taken, heat-inactivated, and stored on ice until HPLC-analysis. Analysis was performed by RP-HPLC on an Altech Platinum C18 column, using 50 mM ammonium acetate buffer pH 3.8, supplemented with 10-20% acetonitrile (optimized for the various peptide analogues) as eluent. Disappearance of the parent peak was determined by UV absorbency at […]. Remaining percentage of the parent compounds was determined as ratio of peak areas relative to the initial (t=0min) value.
The rate of degradation was determined by incubating 250 μM of the GS-EA analogues at 37° C. with 0.25 mg/ml bovine kidney γ-glutamyltranspeptidase in 0.1M Tris-HCl buffer, pH=7.4, supplemented with 0.1mM EDTA. At selected time-intervals, a 100 μL sample was taken, heat-inactivated, and stored on ice until HPLC-analysis. Analysis was performed by RP-HPLC on an Alltech Platinum C18 column, using 50mM ammonium acetate buffer pH=3.8, supplemented with 10-20% acetonitrile (optimized for the various peptide analogues) as eluent. Disappearance of the […] peak and emergence of the corresponding dipeptide-EA conjugate was detected by UV absorbency at 270 nm. Remaining percentage of the parent compounds was determined as ratio of peak areas relative to the initial (t=0 min) value. Results were corrected for non-peptidase mediated degradation of the ethacrynic acid conjugates.

Data set [2] concerns rat liver cytosolic GSTs (S100). Nature of the data set: Inhibition of rat liver cytosolic GSTs (S100), CDNB conjugation. It counts as biochemical. The following applies: S100, 1 mM GSH, 1 mM CDNB, pH 6.5, six inhibitor concentrations. As to the method:
Inhibition of GST mediated CDNB-conjugation was tested at pH=6.5, in the presence of non-limiting concentrations of GSH (1 mM) and CDNB (1 mM). The shown data are averages of three separate determinations. For clarity, error-bars were not included. […] Open markers with dotted lines indicate γGT sensitive compounds, closed markers with closed lines are γGT stabilized structures.
Freshly isolated rat livers were emulsified in 0.1M KCl using a Potter-Elvehjem homogeniser. After initial centrifugation for 30 minutes at 9000 g, the resulting supernatant was subjected to a second centrifugation for 75 minutes at 10^5 g. The cytosolic protein containing supernatant (S100) was used for the GST inhibition experiments. GST inhibition experiments were performed. All solutions were kept on ice until use. Various concentrations of the inhibitions were incubated at 37° C. with rat liver cytosol (1 μl, containing […] of total protein) in sodium-phosphate buffer, pH 6.5, supplemented with 0.1 mM EDTA and 1 mM GSH. Reaction was started by adding 4 μL CDNB in ethanol (final concentration=1 mM, maximal ethanol content=2% v/v). Formation of the GS-CDNB conjugate was followed at 340 nm for 5 minutes. Initial reaction velocities were corrected for the spontaneous (not GST catalyzed) reaction rates. Inhibition was determined as percentage of the non-inhibited reaction rate. Experiments were performed three times with duplicate measurements.
GST inhibition was tested at six concentrations of the GS-EA mimics.

The test system of the next data set is JNK in MTLn3 cells. Nature of the data set: JNK activation (phospho-JNK immunoblot). It counts as cell-based. The following applies: MTLn3/Neo and MTLn3/GSTπ; 50 μM Et2-RP-Bzl, Et2-UrP-Bzl or 20 μM TER199; 8 hours. As to the method:
Confluent monolayers of VCREMS, MTLn3/Neo (3 clones) and MTLn3/GSTπ (3 clones) cells in 12-well culture dishes were exposed for 8 or 16 hours to 50 μM of Et2-RP-Bzl, Et2-UrP-Bzl or 20 μM TER199 (all di-ethyl esters) in full medium at 37° C. Cells were then washed and subsequently scraped in ice-cold PBS. For MTLn3 cells, suspensions of the three different neo and three different GSTπ clones were combined. After centrifugation (10 min, 250 g, 4° C.), the cells were lysed by ultrasonication in cold TSB (10 mM Tris, 250 mM sucrose, 1 mM EGTA, pH 7.4), containing protease inhibitors (50 mM Na3VO4, 10 μg/ml leupeptin, 10 μg/ml pepstain, 1 mM phenylmethylsulfonylfuloride). Protein concentration was determined using the Bradford protein assay, using IgG as a standard.
For GSTπ blotting, non-reducing and non-denaturing conditions were used to keep GSTP in its original (homodimer) state. JNK blots were subjected to standard Western blotting sample pre-treatment protocols. Twenty micrograms of total cellular protein was separated by SDS-polyacrylamide gel electrophoresis and subsequently transferred to polyvinylidene difluoride membrane (Millipore). […] Active JNK was detected by an alkaline phosphatase coupled goat antibody, which was visualized with the Tropix kit (PerkinElmer Life Sciences).

Another data set has as its system MTLn3/GSTπ cells. Nature of the data set: Modulation of thiotepa cytotoxicity (cell proliferation by DNA content). Format: cell-based. The following applies: read-out: IC50 value of thiotepa, No Inh. The protocol:
(§2) Cells (MCF7, VCREMS, 3 MTLn3/neo clones and 3 MTLn3/GSTP1-1 clones) were seeded at 10^4 cells/well in 24-wells polyethylene culture dishes. […] Various concentrations (3 μM-10 mM) of thiotepa (in serum-free medium) were added. After 4 hrs at 37° C., cells were washed twice with PBS, and subsequently incubated for 72 hours in culture medium (in absence of inhibitor). The cells were then rinsed once with BPS and lysed by repeated freeze-thaw cycles in 200 μl water, followed by homogenization on a rotary shaker. […] Stained DNA was measured by spectrofluorometry (excitation: 360 nm, emission 465 nm). A calibration curve of calf thymus DNA was used to determine total DNA quantities. Growth curves were calculated using the IC50 module of the enzyme kinetics program Grafit (version 3.0, Erithacus Software Ltd.).

The test system of the next data set is MTLn3/Neo cells. The description is as above. It counts as cell-based. The following applies: read-out: IC50 value of thiotepa, No Inh. The protocol: as §2
A further data set concerns VCREMS cells. The data set is described as above. It counts as cell-based. The following applies: read-out: IC50 value of thiotepa, No Inh. The protocol: as §2
The next data set concerns MCF7 cells. Described as above. It counts as cell-based. The following applies: Homo sapiens, MCF7, read-out: IC50 value of thiotepa, No Inh. As to the method: as §2
Setting [3] is: 250 μM compound, 0.25 mg/ml bovine kidney γGT, 37° C.

T1 sequence (P09211 2-210 limits assumed): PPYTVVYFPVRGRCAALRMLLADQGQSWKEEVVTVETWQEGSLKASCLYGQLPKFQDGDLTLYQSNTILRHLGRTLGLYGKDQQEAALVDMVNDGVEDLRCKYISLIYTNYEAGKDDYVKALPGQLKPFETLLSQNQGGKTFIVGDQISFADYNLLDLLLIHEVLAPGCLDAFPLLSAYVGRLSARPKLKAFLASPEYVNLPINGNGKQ

On to `N[C@@H](CCC(=O)N[C@@H](CSCc1ccccc1)C(=O)NC(C(=O)O)c1ccccc1)C(=O)O` (stereo partly drawn) [GluPhg-Benzyl (I), γ-L-glutamyl-L-cysteinyl(benzyl)-D-phenylglycine, reference compound] (γGlu-Cys(Bn)-[ξPhg]-OH), for which the values for the Ki at human GSTP1-1, on human GSTM1-1 and at human GSTA1-1 were 0.8 ± 0.3 µM, 21 ± 4 µM and 23 ± 6 µM, respectively.
In the case of `CCC(CSC[C@H](NC(=O)CC[C@H](N)C(=O)O)C(=O)NCC(=O)O)C(=O)c1ccc(OCC(=O)O)c(Cl)c1Cl` (stereo partly shown) [I, γ-Glu[Cys(EA)-Gly-OH]—OH, reference compound], in data set [1] (setting [3]), the “stability towards γGT (in words)” value is listed as “cleaved rapidly” and the “time to complete degradation of the GSH backbone by γGT” value is no more than 20 min.
Take `CN(C(=O)CC[C@H](N)C(=O)O)[C@@H](CS)C(=O)NCC(=O)O` [III, γ-Glu[MeCys-Gly-OH]—OH]: the “inhibition of rat liver cytosolic GSTs (in words)” value (from here on “inhibition … (in words)”) in [2] is “a decrease in inhibition was seen”.
Regarding `N[C@@H](CCCN[C@@H](CSCc1ccccc1)C(=O)NC(C(=O)O)c1ccccc1)C(=O)O` (stereo partly shown) [RedPhg-Benzyl (II)], the figures for the Ki at human GSTP1-1, on human GSTM1-1 and at human GSTA1-1 were 6 ± 3 µM, 29 ± 6 µM and 55 ± 11 µM, respectively. Besides, at human GSTP1-1, 50 µM produced 81% inhibition.
`CCOC(=O)[C@@H](N)CCC(=O)N[C@@H](CSCc1ccccc1)C(=O)N[C@@H](C(=O)OCC)c1ccccc1` [TER199]: the “phospho-JNK (JNK1, JNK2) formation” value in the data set on JNK in MTLn3 cells was “a small band appeared just below the 54 kDa active JNK2 band”.
For `N[C@@H](COC(=O)N[C@@H](CSCc1ccccc1)C(=O)NC(C(=O)O)c1ccccc1)C(=O)O` (stereo partly shown) [UrPhg-Benzyl (III), H-Glo[Cys(Bzl)-Phg-OH]-OH], the results for the Ki on human GSTP1-1, at human GSTM1-1 and on human GSTA1-1 were 3 ± 2 µM, 16 ± 2 µM and 29 ± 4 µM, respectively. This compound came in with an inhibition at 50 µM against human GSTP1-1 of 93%.
Regarding `S=P(N1CC1)(N1CC1)N1CC1` [thiotepa], the IC50 with MTLn3/GSTπ cells was 219 ± 21 µM; with MTLn3/Neo cells, 164 ± 9 µM; in the data set on VCREMS cells, 2840 ± 1100 µM; in the data set on MCF7 cells it was 699 ± 50 µM.
On to H-Glo[Cys(EA)-Gly-OH]—OH [VI], for which the “inhibition … (in words)” value in data set [2] is recorded as “efficient γGT stable inhibitors”.
Still for that read-out and setting: under H-Glu[Ψ(CH2NH)-Cys(EA)-Gly-OH]—OH [V] stands “efficient γGT stable inhibitors”.
For the compound “γ-Glu[2-amino-1-mercapto(S-EA)-6-hexanoic acid]-OH [IV]”, the “inhibition … (in words)” value in data set [2] was “poor inhibitor of cytosolic GSTs”. For the same compound, the “stability towards γGT (in words)” value in [1] (setting [3]) is on record as “very sensitive towards γGT mediated cleavage”.
As for γ-Glu[Cys(EA)-Src-OH]—OH [II], the “inhibition … (in words)” value in [2] was “comparable inhibition pattern to compound I”. Besides, the “t½ of γGT mediated hydrolysis” value in data set [1] was “approximately equal to the half-life of GS-EA”.
